Results: article PMC10534214 (Food Chemistry: X, 2023)

Target: T1, SaDHPS (Staphylococcus aureus, UniProt O05701, R204H/P216R)
T1 construct: gene folP
Details: read-out: SaDHPS + SIZ-2FITC / IC50 (ng/mL); tracer SIZ-2FITC; 4 mM DHPPP, 40 mM Mg2+ in reaction buffer, pH 8.0, 37 C, 2 min

NS(=O)(=O)c1ccccc1 [BSN]
IC50: 55.1 nM
